Measurements from paper PMC10797637 (Journal of natural products, 2023).

What follows are compounds tested on P. falciparum Dd2 (assay: Plasmodium falciparum SYBR Green I assay). Conditions: relative to HepG2 cytotoxicity.
Format: cell-based

With COC(=O)[C@]12Oc3cc4c(c(O)c3C(=O)C1=C(O)CC[C@@H]2O)[C@@H]1C=C[C@@]2(C4)C(=O)c3cc(C)cc(O)c3C(O)=C2C1=O [compound 8, xanthoquinodin A2] as the compound, how does the “P. falciparum SI” value read?
The value was >50.

What follows are compounds tested on HepG2 human hepatocytes (assay: Human cell cytotoxicity assay). Conditions: HepG2, read-out: HepG2 EC50.
Format: cell-based

How did the EC50 turn out when COC(=O)[C@]1([C@@H]2CCC(=O)O2)CC(=O)c2c(O)cc(C)cc2O1 [compound 12, gonytolide C] was run?
Its EC50 is > 25 µM.

With COC(=O)[C@]1([C@@H]2CCC(=O)O2)CC(=O)c2c(cc3c(c2O)[C@@H]2C=C[C@@]4(C3)C(=O)c3cc(C)cc(O)c3C(O)=C4C2=O)O1 [compound 9, xanthoquinodin A3] as the compound, how does the EC50 read?
Its EC50 is > 25 µM.

Which EC50 does the source give for COC(=O)[C@]12Oc3cc4c(c(O)c3C(=O)C1=C(O)CC[C@@H]2O)[C@@H]1C=C[C@@]2(C4)C(=O)c3cc(C)cc(O)c3C(O)=C2C1=O [compound 8, xanthoquinodin A2] here?
The EC50 was > 25 µM.

For COC(=O)[C@]1([C@@H](O)CCC(=O)O)CC(=O)c2c(cc3c(c2O)[C@@H]2C=C[C@@]4(C3)C(=O)c3cc(C)cc(O)c3C(O)=C4C2=O)O1 [compound 3, xanthoquinodin NPDG A3], which EC50 is on record?
Its EC50 is > 25 µM.

COC(=O)[C@]12Oc3c(c(O)cc4c3[C@@H]3C=C[C@@]5(C4)C(=O)c4cc(C)cc(O)c4C(=O)[C@]5(O)C3=O)C(=O)C1=C(O)CC[C@@H]2O [compound 6, xanthoquinodin NPDG B1] was tested. Which EC50 did it give?
The EC50 was > 25 µM.

COC(=O)[C@]1([C@@H]2CCC(=O)O2)CC(=O)c2c(cc3c(c2O)[C@@H]2C=C[C@@]4(C3)C(=O)c3cc(C)cc(O)c3C(=O)[C@]4(O)C2=O)O1 [compound 5, Xanthoquinodin NPDG A5] was tested. Which EC50 did it give?
The EC50 was > 25 µM.

Which EC50 does the source give for COC(=O)[C@]1([C@@H](O)CCC(=O)O)CC(=O)c2c(cc3c(c2O)[C@@H]2C=C[C@@]4(C3)C(=O)c3cc(C)cc(O)c3C(=O)[C@]4(O)C2=O)O1 [compound 4, Xanthoquinodin NPDG A4] here?
Its EC50 is > 25 µM.

With COC(=O)[C@@]12Oc3cc4c(c(O)c3C(=O)C1=C(O)CC[C@@H]2O)[C@@H]1C=C[C@@]2(C4)C(=O)c3cc(C)cc(O)c3C(=O)[C@]2(O)C1=O [compound 1, xanthoquinodin NPDG A1] as the compound, how does the EC50 read?
Its EC50 is > 25 µM.

With COC(=O)[C@@]12Oc3cc4c(c(O)c3C(=O)C1=C(O)CC[C@@H]2O)[C@@H]1C=C[C@@]2(C4)C(=O)c3cc(C)cc(O)c3C(O)=C2C1=O [compound 7, xanthoquinodin A1] as the compound, how does the EC50 read?
Its EC50 is > 25 µM.
